This is an account of results in ChEMBL document CHEMBL1201862, “PubChem BioAssay data set” (2004).

Each structure is given as a SMILES string. Activity calls are given as the source filed them. A value given as a limit tells only on which side of the number the result lay.

A word on the AC50: it is the concentration giving half of the maximal activity seen. By EC50 is commonly meant the concentration at which the effect is half-maximal.

For data set [1], the target named is T1, Cytochrome P450 1A2 (Homo sapiens, UniProt P05177).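 Also: PubChem cytochrome P450 panel assay, CYP1A2 panel member.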
T1 sequence (P05177 whole entry): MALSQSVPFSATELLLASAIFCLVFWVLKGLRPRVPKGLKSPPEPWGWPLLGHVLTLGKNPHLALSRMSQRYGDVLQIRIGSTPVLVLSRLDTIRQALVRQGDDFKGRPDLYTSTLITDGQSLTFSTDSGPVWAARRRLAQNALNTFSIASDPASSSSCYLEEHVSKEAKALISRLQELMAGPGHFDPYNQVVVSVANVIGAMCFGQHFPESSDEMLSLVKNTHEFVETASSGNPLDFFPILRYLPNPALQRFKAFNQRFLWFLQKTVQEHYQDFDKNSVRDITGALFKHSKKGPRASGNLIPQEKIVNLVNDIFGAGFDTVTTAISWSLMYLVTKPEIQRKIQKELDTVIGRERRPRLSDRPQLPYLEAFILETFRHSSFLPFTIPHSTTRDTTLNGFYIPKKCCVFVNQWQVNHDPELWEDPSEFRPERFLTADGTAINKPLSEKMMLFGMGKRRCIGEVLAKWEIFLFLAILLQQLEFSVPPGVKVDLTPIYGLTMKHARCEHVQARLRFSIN

The target of data set [2] is Luciferin 4-monooxygenase (Photinus pyralis, UniProt P08659). Nature of the data set: firefly luciferase enzyme inhibitors, dose response, biochemical, luminescence (AID 1891).
Sequence of Luciferin 4-monooxygenase (P08659 whole entry): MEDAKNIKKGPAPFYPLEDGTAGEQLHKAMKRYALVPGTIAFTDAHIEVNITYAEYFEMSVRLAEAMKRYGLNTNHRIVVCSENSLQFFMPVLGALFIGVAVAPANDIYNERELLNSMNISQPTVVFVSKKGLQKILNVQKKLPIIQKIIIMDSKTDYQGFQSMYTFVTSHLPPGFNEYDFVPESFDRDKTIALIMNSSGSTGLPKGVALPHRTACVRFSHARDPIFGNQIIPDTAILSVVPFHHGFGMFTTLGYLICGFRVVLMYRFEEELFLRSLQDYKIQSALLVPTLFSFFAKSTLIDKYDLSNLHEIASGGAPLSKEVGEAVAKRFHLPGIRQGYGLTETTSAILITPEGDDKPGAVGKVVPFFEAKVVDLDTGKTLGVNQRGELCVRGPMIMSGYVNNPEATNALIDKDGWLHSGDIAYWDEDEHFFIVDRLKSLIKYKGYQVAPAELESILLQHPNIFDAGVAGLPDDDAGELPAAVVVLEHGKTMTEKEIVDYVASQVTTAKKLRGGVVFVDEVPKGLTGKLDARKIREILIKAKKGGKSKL
Data set [3] is described as follows: Luminescence Cell-Based Dose Confirmation HTS to Identify Inhibitors of Platelet Dense Granule Release. [Related pubchem assays: 1663 (Primary HTS), 1678 (Summary of Project)]. The data set is classed as functional.
For data set [4], the target named is T2, Protein RecA (Mycobacterium tuberculosis, UniProt P9WHJ3).
T2 sequence (P9WHJ3 whole entry): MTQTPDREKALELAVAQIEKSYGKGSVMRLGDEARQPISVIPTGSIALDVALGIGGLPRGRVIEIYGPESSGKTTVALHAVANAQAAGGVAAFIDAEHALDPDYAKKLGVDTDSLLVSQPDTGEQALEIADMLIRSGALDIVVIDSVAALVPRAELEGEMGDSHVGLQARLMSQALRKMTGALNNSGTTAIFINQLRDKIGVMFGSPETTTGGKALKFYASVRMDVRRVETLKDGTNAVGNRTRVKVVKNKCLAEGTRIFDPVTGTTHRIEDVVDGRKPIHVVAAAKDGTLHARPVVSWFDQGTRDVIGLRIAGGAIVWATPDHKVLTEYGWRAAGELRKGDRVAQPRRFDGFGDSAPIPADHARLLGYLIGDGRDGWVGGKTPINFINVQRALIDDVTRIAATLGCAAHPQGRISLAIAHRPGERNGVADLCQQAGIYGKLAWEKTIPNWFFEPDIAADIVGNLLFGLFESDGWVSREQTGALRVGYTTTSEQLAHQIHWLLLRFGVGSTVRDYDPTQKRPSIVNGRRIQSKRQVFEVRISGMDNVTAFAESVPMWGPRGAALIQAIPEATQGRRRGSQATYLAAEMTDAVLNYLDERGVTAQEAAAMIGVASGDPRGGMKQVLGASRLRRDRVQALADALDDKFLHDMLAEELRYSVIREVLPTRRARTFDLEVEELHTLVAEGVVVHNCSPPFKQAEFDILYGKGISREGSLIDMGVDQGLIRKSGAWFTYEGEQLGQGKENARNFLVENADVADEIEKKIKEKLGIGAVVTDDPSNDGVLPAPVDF
In words: Fluorescence Cell-Free Homogeneous Dose Retest to Identify Inhibitors of RecA-Intein Splicing Activity. [Related pubchem assays (depositor defined):AID2097, AID2223, AID489010, AID492950]. The data set is classed as functional.

Data set [5] concerns the target T3, Replicative DNA helicase DnaB (Mycobacterium tuberculosis, UniProt P9WMR3).
T3 sequence (P9WMR3 whole entry): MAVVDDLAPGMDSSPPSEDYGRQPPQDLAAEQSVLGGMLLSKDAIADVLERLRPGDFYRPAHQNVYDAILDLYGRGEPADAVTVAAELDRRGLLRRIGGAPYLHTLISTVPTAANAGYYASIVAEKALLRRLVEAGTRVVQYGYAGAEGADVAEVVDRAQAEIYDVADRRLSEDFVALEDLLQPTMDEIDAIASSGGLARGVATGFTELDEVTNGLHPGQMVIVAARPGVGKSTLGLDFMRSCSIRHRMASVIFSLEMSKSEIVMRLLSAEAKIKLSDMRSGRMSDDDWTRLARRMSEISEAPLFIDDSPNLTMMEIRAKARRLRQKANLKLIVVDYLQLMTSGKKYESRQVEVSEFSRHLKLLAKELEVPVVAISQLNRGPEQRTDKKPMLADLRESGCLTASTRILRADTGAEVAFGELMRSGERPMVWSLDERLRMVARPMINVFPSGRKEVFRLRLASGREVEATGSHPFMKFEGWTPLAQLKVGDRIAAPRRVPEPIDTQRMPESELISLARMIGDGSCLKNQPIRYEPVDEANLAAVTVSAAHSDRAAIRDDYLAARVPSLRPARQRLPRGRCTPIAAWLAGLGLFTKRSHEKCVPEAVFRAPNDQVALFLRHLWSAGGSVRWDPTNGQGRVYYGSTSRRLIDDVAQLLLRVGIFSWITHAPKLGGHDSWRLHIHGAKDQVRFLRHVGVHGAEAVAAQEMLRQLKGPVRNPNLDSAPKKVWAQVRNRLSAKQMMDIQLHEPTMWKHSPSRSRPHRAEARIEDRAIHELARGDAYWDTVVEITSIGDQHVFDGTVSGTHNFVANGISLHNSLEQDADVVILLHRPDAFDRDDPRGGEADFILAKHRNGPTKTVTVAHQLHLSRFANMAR
Nature of the data set: DnaB intein splicing inhibitors, dose response, biochemical, cell-free fluorescence (AID 449749). The data set is classed as functional.

Data set [6] addresses Cytochrome P450 2C19 (Homo sapiens, UniProt P33261). In words: Cytochrome panel assay with activity outcomes. Panel member name: p450-cyp2c19 Compounds with AC50 equal or less than 10 uM are considered active. The data set is classed as functional.
Data set [7] has as its target Cytochrome P450 3A4 (Homo sapiens, UniProt P08684).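 Also: CYP3A4 tested as one member of a cytochrome P450 panel screen.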
Data set [8] is described as follows: inhibitors of intracellular T. cruzi replication, confirmation, NIH3T3 host cells, beta-gal luminescence (AID 2044).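 Also: intracellular parasites grown in NIH/3T3 mouse fibroblasts as host cells; luminescent beta-galactosidase reporter signal from transgenic T. cruzi replicating inside host cells; inhibitors lower the luminescence signal.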 The data set is classed as functional, cell-based.
Data set [9] in a line: cytotoxicity toward NIH3T3 fibroblasts, dose response, counter-screen, cell-based, ATP luminescence, mouse fibroblasts (AID 2010).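 Also: cells exposed to compound for about 90 hours before reading.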 The data set is classed as functional.

Sequence of Cytochrome P450 2C19 (P33261 whole entry): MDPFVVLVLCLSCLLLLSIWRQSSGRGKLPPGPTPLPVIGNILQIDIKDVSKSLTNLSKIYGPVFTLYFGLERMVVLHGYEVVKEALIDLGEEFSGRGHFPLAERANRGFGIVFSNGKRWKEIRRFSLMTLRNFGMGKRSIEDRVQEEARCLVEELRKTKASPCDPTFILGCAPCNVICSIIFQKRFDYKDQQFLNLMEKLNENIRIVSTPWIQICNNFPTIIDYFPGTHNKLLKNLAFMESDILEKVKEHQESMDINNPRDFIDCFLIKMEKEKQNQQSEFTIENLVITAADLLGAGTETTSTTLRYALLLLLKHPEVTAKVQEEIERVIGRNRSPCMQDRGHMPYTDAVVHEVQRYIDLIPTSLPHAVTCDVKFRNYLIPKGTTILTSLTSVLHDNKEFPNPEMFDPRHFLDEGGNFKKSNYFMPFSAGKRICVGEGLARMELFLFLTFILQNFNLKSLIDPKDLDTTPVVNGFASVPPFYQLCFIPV
Sequence of Cytochrome P450 3A4 (P08684 whole entry): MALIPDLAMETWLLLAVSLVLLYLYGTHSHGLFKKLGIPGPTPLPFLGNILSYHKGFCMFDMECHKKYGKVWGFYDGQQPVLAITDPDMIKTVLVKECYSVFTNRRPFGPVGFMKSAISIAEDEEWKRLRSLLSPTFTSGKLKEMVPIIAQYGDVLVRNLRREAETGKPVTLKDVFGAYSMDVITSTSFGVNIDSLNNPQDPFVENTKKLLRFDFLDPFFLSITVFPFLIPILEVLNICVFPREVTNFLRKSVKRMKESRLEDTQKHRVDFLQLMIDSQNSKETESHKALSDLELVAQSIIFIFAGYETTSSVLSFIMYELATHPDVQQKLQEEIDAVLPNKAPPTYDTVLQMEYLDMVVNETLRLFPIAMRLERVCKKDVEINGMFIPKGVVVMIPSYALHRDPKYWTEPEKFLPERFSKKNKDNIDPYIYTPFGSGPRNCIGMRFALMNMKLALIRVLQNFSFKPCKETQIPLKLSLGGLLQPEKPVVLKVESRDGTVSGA

In the case of `Cn1c(N)nc2c(nc(OCc3ccccc3)n2[C@@H]2O[C@H](CO)[C@@H](O)[C@@H]2O)c1=O`, the AC50 in [1] was 0.00251 µM (inconclusive).
With `CCOC1OC2C(CO)OC(n3cnc4c(N)ncnc43)C2O1` (configuration not stated), the EC50 in data set [2] is > 112 µM (not active); in data set [3], 6.37 µM (active).
With `[O-][n+]1c2c(nc3c1-c1ccccc1C3O)CCCC2` (configuration not stated), in [4], the EC50 is 18.6 µM (active). Besides, in data set [5], the AC50 was 19.4 µM (active).
With `O=C(Oc1ccc(-n2cnnn2)cc1)c1ccco1`, the 50% effective concentration (EC50) in [4] was 12.7 µM (active). Further, the AC50 in data set [5] was 15.3 µM (active).
In the case of `COc1cc(C2NC(=O)NC(O)(C(F)(F)F)C2C(=O)c2ccc(Cl)cc2)ccc1O` (configuration not stated), the values for the AC50 in [1], in data set [6] (read-out: AC50) and in data set [7] were 39.8 µM (inconclusive), 11.2 µM (inconclusive) and 15.8 µM (inconclusive), respectively.
As to `COc1ccc(NC(=O)N2CC[C@@]3(CCCN(C(C)=O)C3)C2)cc1`, the AC50 in data set [1] is 39.8 µM (inconclusive).
Take `O=C(NNS(=O)(=O)c1ccccc1)c1cccnc1`: the EC50 in data set [2] and in data set [3] was > 112 µM (not active) in each case. Further, the concentration at half-maximal activity (AC50) in data set [7] was 3.98 µM (inconclusive).
For `CC(C)Oc1ccc(CNC(=O)c2ccc3c(c2)N(C)CCS3)cc1`, the EC50 was 20.4 µM (active) in data set [2] and > 112 µM (not active) in data set [3].
For the compound `COC(=O)c1sc(N)c(C(=O)OC)c1Cn1ncc(Cl)c(Cl)c1=O`, the EC50 in data set [4] is 0.541 µM (active). The AC50 in data set [5] was 2.66 µM (active).
Turning to `O=C(NC(c1ccccc1)c1ccccc1)c1ccc(O)nn1`, the EC50 was > 112 µM (not active) in data set [2] and 5.32 µM (active) in [3].
With `COc1ccccc1CC(=O)NNC(=O)CN(C)S(=O)(=O)c1ccc(Cl)cc1`, the EC50 in data set [2] and in [3] was > 112 µM (not active) in each case.
Regarding `Cc1ccc(Oc2nc3ccccn3c(=O)c2/C=C(\C#N)C(=O)NC2CCS(=O)(=O)C2)cc1` (configuration not stated), the EC50 in data set [2] was > 112 µM (not active); in [3], 8.55 µM (active).
For the compound `COC(=O)c1[nH]c2cccc(OC)c2c1NC(=O)CN1CCOCC1`, the EC50 in data set [2] and in data set [3] was > 112 µM (not active) throughout.
Turning to `CC1(c2ccccc2)NC(=O)N(CC(=O)N2CCN(S(=O)(=O)c3ccccc3[N+](=O)[O-])CC2)C1=O` (configuration not stated), the half-maximal effective concentration (EC50) in [2] and in [3] was > 112 µM (not active) each time.
Regarding `Nc1c(NC=O)c(=O)n(Cc2ccccc2)c(=O)n1Cc1ccccc1`, the concentration giving a half-maximal response (EC50) in data set [2] and in [3] was > 112 µM (not active) throughout.
For `CCCc1n[nH]c2c1C(c1ccc(OC(=O)N3CCOCC3)c(OC)c1)C(C#N)=C(N)O2` (configuration not stated), the EC50 in [4] is 10 µM (active). Moreover, the AC50 in [5] was 32.2 µM (active).
As to `CC(=O)c1ccc(NC(S)=NC(C)CCc2ccccc2)cc1` (configuration not stated), the EC50 in data set [2] and in [3] was > 112 µM (not active) in each case.
Regarding `O=c1c(-c2ccc(Cl)cc2)[n+]([O-])c2ccccc2n1OCc1ccccn1`, the AC50 in data set [1] is 1.26 µM (inconclusive); in data set [6] (read-out: AC50), 2.82 µM (inconclusive); in data set [7], 7.08 µM (inconclusive).
In the case of `Cc1ccc(C2C(C#N)=C(N)Oc3[nH]c(-c4ccccc4)nc32)o1` (configuration not stated), the EC50 in [4] is 5.11 µM (active). For the same compound, the AC50 in data set [5] is 21.5 µM (active).
For `CCOc1ccc(CN2CCN(CC3=Cc4cccc(OC)c4OC3)CC2CCO)cc1` (configuration not stated), the EC50 in [8] was 0.303 µM (active); in [4], > 380 µM (inactive); in [9], > 60 µM (not active). For the same compound, in data set [5], the AC50 was > 380 µM (inactive).
Take `COc1ccc(NC(=O)CN2CCN(CC(=O)Nc3ccccc3Cl)CC2)cc1`: in [1], the AC50 is 25.1 µM (inconclusive).
With `C=C(C)CC1(NC(C)c2ccccc2)CCCCC1` (configuration not stated), the EC50 in data set [2] and in data set [3] was > 112 µM (not active) in each case.
For the compound `CCN(CC)C(=O)CSc1nnc(-c2ccco2)n1N`, the AC50 in data set [1] was 17.8 µM (inconclusive).
For `COc1ccc(OC)c(C2C(C#N)=C(N)Oc3c2c(C)nn3-c2cccc(Cl)c2)c1` (configuration not stated), the EC50 in data set [4] was 6.94 µM (active). For the same compound, the AC50 in data set [5] is > 380 µM (inactive).
On to `CCOc1ccc(N2C(=O)CC(Sc3nc4ccc(OCC)cc4s3)C2=O)cc1` (configuration not stated), for which the EC50 in data set [2] and in [3] was > 112 µM (not active) throughout.
Turning to `COc1ccc(N2CCN(CCNC(=O)c3c(C)cc(=O)oc3C)CC2)cc1`, the AC50 in data set [1] is 25.1 µM (inconclusive); in data set [7], 14.1 µM (inconclusive).
`O=C(Oc1cccc(OC(=O)c2ccco2)c1)c1ccco1`: the EC50 in [4] is 19.8 µM (active). Also, the AC50 in data set [5] was 2.88 µM (active).
Take `O=C(Nc1ccccc1)N1CC[C@@]2(CCCN(C(=O)c3cc(C(F)(F)F)cc(C(F)(F)F)c3)C2)C1`: the AC50 in data set [1] is 25.1 µM (inconclusive); in data set [6], “inconclusive”; in data set [7] it was 12.6 µM (inconclusive).
Regarding `O=C(Cn1nc(C(=O)O)c2ccccc2c1=O)NCC1CCCO1` (configuration not stated), the EC50 in data set [2] and in data set [3] was > 112 µM (not active) each time.
`Cc1ccccc1N1C(=O)c2ccccc2C1Nc1cccnc1` (configuration not stated): in [4], the EC50 was > 380 µM (inactive). Further, in [5], the AC50 was > 380 µM (inactive).
In the case of `O=C(c1nc2ccc([N+](=O)[O-])cc2nc1O)[C@@H](O)c1ccc2c(c1)OCO2`, the AC50 in data set [1] is 3.16 µM (inconclusive).
With `COc1cc(/C=N/NC(=S)Nc2cccc(Cl)c2C)ccc1OCC(=O)N1CC(C)OC(C)C1` (configuration not stated), the EC50 in data set [4] was 4 µM (active). In addition, in data set [5], the AC50 is 17.5 µM (active).
In the case of `COc1cc(C[C@H]2C(=O)OC[C@@H]2Cc2ccc(OC)c(OC)c2)ccc1O` [ARCTIGENIN], the results for the AC50 in data set [1] and in [6] (read-out: AC50) were 31.6 µM (inconclusive) and 0.00251 µM (inconclusive), respectively.
